Assay results: US20260158056A1, “USE OF LOW MOLECULAR WEIGHT HYALURONIC ACID FOR THE TREATMENT OF LUNG MUCOSAL INFLAMMATION” (INSTITUT NATIONAL DE LA SANTÉ ET DE LA RECHERCHE MÉDICALE, priority 2021, published 2026)

System: IL-8 secreted by F508del/F508del CF human airway epithelial cells
Experiment: IL-8 ELISA, CF airway epithelial cells cultured at the air-liquid interface (ALI), treatment during regeneration and differentiation
Format: cell-based
Method: FIG. 1: Measurement by ELISA assay of the pro-inflammatory chemokine IL-8 secreted by F508del/F508del CF human airway epithelial cells cultured at the air-liquid interface (ALI). Airway epithelial cells were seeded in bi-compartmental chambers and cultured in liquid-liquid condition until confluence was reached. At confluence, culture medium from the upper chamber was removed to create an air-liquid interface (ALI) that will favor epithelial cell differentiation. From the ALI creation, the different treatments (15-45 kDa sodium-hyaluronic acid (HA-Na 15-45 kDa) (ARD—Pomacle—France—as prepared according to WO2004050187), 15-30 kDa sodium-hyaluronic acid (HA-Na 15-30 kDa) (Sigma Aldrich) or 30-50 kDa sodium-hyaluronic acid (HA-Na 30-50 kDa) (Sigma Aldrich) were added at 1 mg/mL to the culture medium in the basal chamber. The culture medium was renewed three times a week. At ALI day 15, the culture medium was replaced by fresh medium without any treatment. After a 4 h-period, this culture medium was collected and the IL-8 content was determined by ELISA assay. n=5 different F508del/F508del CF patients. p<0.001 (***); p<0.01 (**); p<0.05 (*). ns: non-significant.
FIG. 4: Measurement by ELISA assay of the pro-inflammatory chemokine IL-8 secreted by F508del/F508del CF human airway epithelial cells cultured at the air-liquid interface (ALI). Airway epithelial cells were seeded in bi-compartmental chambers and cultured in liquid-liquid condition until confluence was reached. At confluence, culture medium from the upper chamber was removed to create an air-liquid interface (ALI) that will favor epithelial cell differentiation. From the ALI creation, the different treatments (15-45 kDa sodium-hyaluronic acid (HA-Na 15-45 kDa) (ARD—Pomacle—France—as prepared according to WO2004050187), 15-45 kDa calcium-hyaluronic acid (HA-Ca 15-45 kDa; ARD), or 15-45 kDa potassium-hyaluronic acid (HA-K 15-45 kDa; ARD) were added at 1 mg/mL to the culture medium in the basal chamber. The culture medium was renewed three times a week. At ALI day 15, the culture medium was replaced by fresh medium without any treatment. After a 4 h-period, this culture medium was collected and the IL-8 content was determined by ELISA assay. n=4 different F508del/F508del CF patients. p<0.001 (***); p<0.01 (**); p<0.05 (*). ns: Non-significant.
FIG. 7: Measurement by ELISA assay of the pro-inflammatory chemokine IL-8 secreted by F508del/F508del CF human airway epithelial cells cultured at the air-liquid interface (ALI). Airway epithelial cells were seeded in bi-compartmental chambers and cultured in liquid-liquid condition until confluence was reached. At confluence, culture medium from the upper chamber was removed to create an air-liquid interface (ALI) that will favor epithelial cell differentiation. From the ALI creation, 15-45 kDa sodium-hyaluronic acid (HA-Na 15-45 kDa) (ARD—Pomacle—France—as prepared according to WO2004050187) was added at 0.1 mg/mL, 0.5 mg/mL, 1 mg/mL and 2 mg/mL to the culture medium in the basal chamber. The culture medium was renewed three times a week. At ALI day 15, the culture medium was replaced by fresh medium without any treatment. After a 4 h-period, this culture medium was collected and the IL-8 content was determined by ELISA assay. n=3 different F508del/F508del CF patients. p<0.001 (***); p<0.01 (**); p<0.05 (*). ns: non-significant.

[1] = FIG. 1, 1 mg/mL from ALI creation, ALI day 15, vs control condition, n=5 CF patients
[2] = FIG. 4, 1 mg/mL from ALI creation, ALI day 15, vs control condition, n=4 CF patients

## 15-30 kDa sodium-hyaluronic acid [HA-Na 15-30 kDa]
[1]
  decrease in IL-8 secretion: 57%

## 15-45 kDa calcium-hyaluronic acid [HA-Ca 15-45 kDa]
[2]
  decrease in IL-8 secretion: 59.25%

## 15-45 kDa sodium-hyaluronic acid [HA-Na 15-45 kDa]
[1]
  decrease in IL-8 secretion: 52%
[2]
  decrease in IL-8 secretion: 55.5%
FIG. 7, 0.1 mg/mL, ALI day 15, n=3 CF patients
  decrease in IL-8 secretion: does not have anymore effect
FIG. 7, 0.5 mg/mL, ALI day 15, n=3 CF patients
  decrease in IL-8 secretion: 47.3%
FIG. 7, 1 mg/mL, ALI day 15, n=3 CF patients
  decrease in IL-8 secretion: 62%
FIG. 7, 2 mg/mL, ALI day 15, n=3 CF patients
  decrease in IL-8 secretion: 65%

## 30-50 kDa sodium-hyaluronic acid [HA-Na 30-50 kDa]
[1]
  decrease in IL-8 secretion: 67.2%
